The text below walks through data of paper PMC10816640, “Discovery of Novel Diphenyl Acrylonitrile Derivatives That Promote Adult Rats’ Hippocampal Neurogenesis” (International Journal of Molecular Sciences, 2024).

The test system of series [1] is progenitor cells in the rodents’ hippocampi. The series is described as follows: Proliferation stage of neurogenesis: BrdU labeling, rats sacrificed 24 h after BrdU. It is filed as in vivo, rat. Conditions: i.p. 4.0 mg/kg/day for 28 days, BrdU pulse, vs vehicle; for proliferation-promoting activity (number of BrdU+ positive cells): nine-week-old rats (n = 4), Figure 8, 4 mg/kg/day. The text has this: (§1) Previous in vitro or in vivo studies mainly focused on stimulating the proliferation effect of the small molecules. In this study, a two-step protocol was employed. First, the stimulating function of the compounds on progenitor cells in the rodents’ hippocampi was examined with using bromodeoxyuridine (BrdU) labeling. Next, the potent compounds were further screened to ascertain their ability to promote the differentiation of neural progenitor cells, as confirmed by dual labeling of BrdU and NeuN (neuronal nuclear antigen).
Adult rats were administered intraperitoneally with the prepared compounds at a dose of 4.0 mg/kg/day for a period of 28 days, followed by a BrdU pulse. After 24 h, the rats were sacrificed, and their brain tissues were isolated and cryosectioned. Immunohistochemical staining was performed and eight brain tissue slices were randomly selected for statistical analyzing.
Eight-week-old (or 10-week-old) SD male rats purchased from Peking University Health Science Center were acclimatized for one week at the Beijing Institute of Technology. All experimental protocols strictly adhered to the regulations governing the management of experimental animals and the animal ethics policy of the Beijing Institute of Technology.
(§2) The compounds were dissolved in reagent-grade soybean oil containing 10% ethanol to reach a drug concentration of 2.8 mg/mL. The rats in the experimental group received intraperitoneal injections of the compounds at a dose of 4.0 mg/kg/d for 28 consecutive days. As a control, the vehicle group was administered injections of reagent-grade soybean oil containing 10% ethanol. BrdU (Sigma-Aldrich, St. louis, MA, USA) solution, prepared in physiological saline at a concentration of 10 mg/mL, was administered to all rats on day 29. Each rat received two injections of BrdU at a dosage of 50 mg/kg, with a 2 h interval between injections. The rats were euthanized 24 h (or 28 days) after the final BrdU injection.
(§3) Two or four rats per group were anesthetized using pentobarbital sodium (70 mg/kg) and subsequently perfused with physiological saline. The brain tissue was carefully dissected and fixed in 4% paraformaldehyde at 4 °C for one week. Next, the brain tissue underwent dehydration using a phosphate-buffered saline (PBS) solution containing 20% to 30% sucrose. Finally, the brain tissue was cryosectioned into slices with a thickness of 30 μm, and eight slices were randomly selected for further analysis.
The assessment of new cell proliferation was conducted using BrdU staining. To eliminate endogenous peroxides, sections were exposed to 1% H2O2 for 30 min at RT. Cellular denaturation was achieved by treating the sections with 2 M HCl at 37 °C for 1 h, followed by rinsing in 0.1 M borate buffer (pH 8.5). Tissue sections were subjected to blocking in a solution consisting of 5% goat serum and 0.5% Triton X-100 in PBS at RT for 1–2 h. The specimens were then incubated overnight at 4 °C with a mouse primary antibody specific to BrdU (diluted at 1:500; Millipore, Billerica, MA, USA). Subsequently, the DAB kit was employed for 2 h of incubation at RT.
(§4) The data were presented as mean ± SEM (standard error of the mean) and visualized using GRAPHPAD PRISM 6 (Graphpad Software, La Jolla, CA, USA). Statistical analysis was conducted utilizing one-way analysis of variance (ANOVA) followed by a post hoc test. Subsequent to the statistical treatment, the observed discrepancies were determined to be statistically significant (p < 0.05).
Background: Uptake of a labelled nucleoside into DNA is a usual measure of proliferation.

Series [2] deals with newborn neural progenitor cells (differentiation into mature neurons). Briefly: Differentiation stage of neurogenesis: NeuN/BrdU double staining, rats sacrificed 28 days after BrdU. It counts as in vivo, rat. Conditions: for neurogenesis-promoting activity (number of NeuN+ and BrdU+ cells), differentiation stage: nine-week-old rats (n = 4), i.p. 4.0 mg/kg, Figure 9, 4 mg/kg.
Text: as §1
The study employed a rat model, wherein nine-week-old rats were administered intraperitoneally with the compound at a dose of 4.0 mg/kg/day for 28 days and then treated with a pulse of BrdU. Instead of sacrificing the rats 24 h after the BrdU injections, the rats were sacrificed after another 28 days. The brains were then isolated and cryosectioned. Eight randomly selected slices were subjected to immunohistochemical staining. This staining enabled the co-localization of the BrdU-incorporated cells with the NeuN marker, enabling the definition of the compounds that could promote the differentiation of newborn neural progenitor cells into mature functional neurons.
as §2, §3
The differentiation process of NPCs was visualized through the utilization of the NeuN/BrdU double staining technique. Tissue sections were subjected to an incubation period in a blocking buffer at RT for 1 to 2 h. The specimens were exposed to a rabbit anti-NeuN antibody (diluted at 1:500, Abcam, Cambridge, MA, UK) and a primary antibody, BrdU (diluted at 1:500), overnight at 4 °C. Afterwards, the sections were treated with anti-mouse 488 and anti-rabbit TRITC secondary antibodies for 2 h at RT.
as §4

Another series deals with hCMEC/D3 cells. The series is described as follows: CCK-8 assay for cytotoxicity. The conditions noted are these: hCMEC/D3 cell lines, CCK-8, 48 h incubation. It is filed as cell-based. As to the method: hCMEC/D3 cells were obtained from the Cell Resource Center, Peking Union Medical College (PCRC). All cells were acquired in 2023 and were maintained in culture for no more than 10 continuous passages. The cells were cultured in DMEM (11995065, Gibco, Grand Island, NY, USA) supplemented with 10% FBS (164210-50, Procell, Austin, TX, USA), 100 units of penicillin, and […] of streptomycin (PB180120, Procell).
hCMEC/D3 cells (5 × 10^3) were seeded into 96-well plates in 90 μL of DMEM medium containing 10% fetal bovine serum per well. All test compounds were formulated as 10 mM stock solutions in DMSO (final concentration ≤ 0.5%). After overnight incubation, the test compound stock solution was diluted with DMEM medium containing 10% fetal bovine serum to every target concentration, and 10 μL of each was added to each well. Three parallel experiments were set up for each compound. After incubation for 48 h, 10 μL of CCK-8 reagent was added to each well in sequence according to the manufacturer’s instructions. After incubating in a 37 °C incubator for 1–2 h, the absorbance was measured at a wavelength of 450 nm, using a wavelength of 620 nm as a reference, and detected with a ThermoScientific Multiskan FC (Thermo Fisher Scientific). The graphs are representative results, and this experiment was independently repeated three times with similar results.

pIC50: −log10 of the molar value. Entries after “also recorded” stand apart in the source; their conditions may differ.

As a reminder, the pIC50 is −log10 of the IC50, conventionally taken in molar units. Turning to `CC(C)C(=O)Nc1ccc(/C(C#N)=C/c2ccc3c(c2)OCO3)cc1` [29b, (Z)-N-(4-(2-(benzo[d][1, 3]dioxol-5-yl)-1-cyanovinyl)phenyl)isobutyramide], the “proliferation-promoting activity (number of BrdU+ newborn cells)” value in series [1] (eleven-week-old rats (n = 2), Figures 3-6, 4 mg/kg/day) is given as “significant proliferation-promoting activity; also recorded: satisfactory activity”. The “proliferation-promoting activity (number of BrdU+ positive cells)” value in series [1] was “significant proliferation-promoting activity; also recorded: exhibited proliferative activity”. For the same compound, the “neurogenesis-promoting activity (number of NeuN+ and BrdU+ cells, newborn neurons)” value in series [2] (nine-week-old rats (n = 2), i.p. 4.0 mg/kg/day for 28 days, BrdU pulse, Figure 7B, 4 mg/kg/day) was “significant neurogenesis-promoting activity; also recorded: significantly increased the number of newborn neurons”. In addition, the “neurogenesis-promoting activity (number of NeuN+ and BrdU+ cells), differentiation stage” value in series [2] is given as “significant neurogenesis-promoting activity; also recorded: better activity than the clinical drug NSI-189”. The compound also gave a pIC50 in the series on hCMEC/D3 cells of under 3.70.

Consider `CC(C)C(=O)Nc1ccc(/C=C(\C#N)c2ccc3c(c2)OCO3)cc1` [32b, (Z)-N-(4-(2-(benzo[d][1, 3]dioxol-5-yl)-2-cyanovinyl)phenyl)isobutyramide], for which the “proliferation-promoting activity (number of BrdU+ positive cells)” value in series [1] is given as “significant proliferation-promoting activity; also recorded: exhibited proliferative activity”. Also, the “neurogenesis-promoting activity (number of NeuN+ and BrdU+ cells), differentiation stage” value in series [2] is listed as “significant neurogenesis-promoting activity; also recorded: better activity than the clinical drug NSI-189; also recorded: highest activity”. Further, the negative logarithm of the IC50 (pIC50) in the series on hCMEC/D3 cells was under 3.70.
